Data as given in patent US10336734B2, “Inhibitors of ACK1/TNK2 tyrosine kinase” (H. LEE MOFFITT CANCER CENTER AND RESEARCH INSTITUTE, INC., priority 2015, dated 2019).
pIC50: −log10 of the molar value. Structures can show the parent of a compound that is named as a salt.

How the values were obtained:
[1] = system: histone H4 Y88-phosphorylation; experiment: Immunoblot of H4 Y88-phosphorylation in ligand-treated PC cells; type: cell-based; settings: serum and androgen starved PC cells, ligand activated; 5 μM (DHT 10 nM)
Protocol: FIG. 2A through 2C. ACK1 inhibitor (R)-9bMS suppresses epigenetic modification of histone H4 at tyrosine 88.
To assess endogenous H4-phosphorylation, serum and androgen starved PC cells were treated with ligands to activate ACK1. It led to robust H4 Y88-phosphorylation, suppressed upon (R)-9bMS treatment (FIG. 2A). […] Moreover, H4 Y88-phosphorylation was also detected in human CRPCs using mass spectrometry, which was validated by immunoblotting (FIG. 3A-3C).

[2] = biological target: T1, ACK1 (Homo sapiens (Human), UniProt Q07912); experiment: ACK1 ELISA; type: biochemical; settings: read-out: ACK1 ELISA % inhibition at 10 μM
[3] = system: castration and radioresistant prostate xenograft tumor; settings: in vivo; cited from earlier work
[4] = system: non-small cell lung cancer (NSCLC) cell lines; settings: panel of NSCLC cell lines; cited from earlier work
[5] = system: LNCaP cells expressing constitutively activated ACK1; settings: mouse xenograft model; cited from earlier work
[6] = biological target: T1, ACK1; experiment: ACK1 IC50 (RB); type: biochemical
[7] = biological target: ALK (Homo sapiens (Human), UniProt Q9UM73); experiment: ALK IC50 (RB); type: biochemical
[8] = biological target: JAK2 (Homo sapiens (Human), UniProt O60674); experiment: JAK2 IC50 (RB); type: biochemical
[9] = biological target: c-Src (Homo sapiens (Human), UniProt P12931); experiment: c-Src IC50 (RB); type: biochemical
Chain of c-Src (P12931 whole entry, looked up, species assumed): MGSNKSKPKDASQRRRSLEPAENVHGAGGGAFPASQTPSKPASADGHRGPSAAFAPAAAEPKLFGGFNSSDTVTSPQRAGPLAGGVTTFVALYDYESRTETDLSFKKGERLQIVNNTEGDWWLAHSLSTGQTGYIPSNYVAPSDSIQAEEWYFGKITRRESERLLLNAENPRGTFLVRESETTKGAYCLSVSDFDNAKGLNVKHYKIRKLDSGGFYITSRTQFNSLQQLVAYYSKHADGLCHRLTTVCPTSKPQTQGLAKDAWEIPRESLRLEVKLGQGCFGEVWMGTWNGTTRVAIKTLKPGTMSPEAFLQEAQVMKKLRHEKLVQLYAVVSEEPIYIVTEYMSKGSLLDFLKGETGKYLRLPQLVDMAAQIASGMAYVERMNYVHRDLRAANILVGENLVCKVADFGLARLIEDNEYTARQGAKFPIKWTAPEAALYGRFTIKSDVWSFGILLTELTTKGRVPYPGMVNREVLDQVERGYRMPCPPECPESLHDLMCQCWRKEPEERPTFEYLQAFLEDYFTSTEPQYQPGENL

Chain of ALK (Q9UM73 19-1620, species assumed): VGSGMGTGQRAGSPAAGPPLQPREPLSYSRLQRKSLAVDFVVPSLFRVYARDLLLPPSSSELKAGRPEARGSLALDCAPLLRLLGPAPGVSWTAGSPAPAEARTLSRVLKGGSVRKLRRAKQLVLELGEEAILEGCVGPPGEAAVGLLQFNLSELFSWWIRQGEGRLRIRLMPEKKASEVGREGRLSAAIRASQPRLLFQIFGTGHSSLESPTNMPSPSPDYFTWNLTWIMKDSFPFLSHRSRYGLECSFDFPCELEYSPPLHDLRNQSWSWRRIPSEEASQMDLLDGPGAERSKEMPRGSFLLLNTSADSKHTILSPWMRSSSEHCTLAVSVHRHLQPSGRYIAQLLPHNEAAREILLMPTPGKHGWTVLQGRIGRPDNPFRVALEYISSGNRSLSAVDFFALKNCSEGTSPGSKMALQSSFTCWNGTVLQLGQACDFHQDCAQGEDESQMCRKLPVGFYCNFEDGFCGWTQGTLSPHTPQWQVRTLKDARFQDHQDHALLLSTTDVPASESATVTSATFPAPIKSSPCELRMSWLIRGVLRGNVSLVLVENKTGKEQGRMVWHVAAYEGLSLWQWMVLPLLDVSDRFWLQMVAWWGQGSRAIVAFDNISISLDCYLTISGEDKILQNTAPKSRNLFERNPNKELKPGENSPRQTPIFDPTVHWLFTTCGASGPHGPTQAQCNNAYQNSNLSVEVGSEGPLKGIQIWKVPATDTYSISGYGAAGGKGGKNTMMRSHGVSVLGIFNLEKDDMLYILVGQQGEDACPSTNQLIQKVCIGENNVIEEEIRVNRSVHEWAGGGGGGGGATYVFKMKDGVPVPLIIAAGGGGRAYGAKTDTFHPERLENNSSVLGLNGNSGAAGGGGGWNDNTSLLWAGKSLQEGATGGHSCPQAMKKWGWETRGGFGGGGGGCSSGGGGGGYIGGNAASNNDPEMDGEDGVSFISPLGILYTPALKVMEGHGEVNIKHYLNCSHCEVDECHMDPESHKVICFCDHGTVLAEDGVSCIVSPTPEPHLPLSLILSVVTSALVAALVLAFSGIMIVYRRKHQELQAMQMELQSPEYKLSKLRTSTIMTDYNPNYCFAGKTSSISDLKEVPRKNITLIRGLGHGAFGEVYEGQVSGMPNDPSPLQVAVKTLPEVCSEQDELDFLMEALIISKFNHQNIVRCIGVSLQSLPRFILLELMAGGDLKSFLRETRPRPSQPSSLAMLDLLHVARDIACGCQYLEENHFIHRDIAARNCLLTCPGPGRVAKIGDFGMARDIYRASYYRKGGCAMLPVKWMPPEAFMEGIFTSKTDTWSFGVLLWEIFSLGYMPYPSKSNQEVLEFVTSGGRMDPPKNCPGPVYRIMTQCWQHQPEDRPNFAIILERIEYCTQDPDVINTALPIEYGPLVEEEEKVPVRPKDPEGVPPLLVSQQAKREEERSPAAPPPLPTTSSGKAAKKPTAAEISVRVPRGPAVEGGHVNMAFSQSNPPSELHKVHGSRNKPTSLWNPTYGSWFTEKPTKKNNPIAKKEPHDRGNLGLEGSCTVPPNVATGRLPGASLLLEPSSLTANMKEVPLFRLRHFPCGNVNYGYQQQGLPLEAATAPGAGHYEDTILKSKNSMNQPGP
T1 sequence (Q07912 whole entry): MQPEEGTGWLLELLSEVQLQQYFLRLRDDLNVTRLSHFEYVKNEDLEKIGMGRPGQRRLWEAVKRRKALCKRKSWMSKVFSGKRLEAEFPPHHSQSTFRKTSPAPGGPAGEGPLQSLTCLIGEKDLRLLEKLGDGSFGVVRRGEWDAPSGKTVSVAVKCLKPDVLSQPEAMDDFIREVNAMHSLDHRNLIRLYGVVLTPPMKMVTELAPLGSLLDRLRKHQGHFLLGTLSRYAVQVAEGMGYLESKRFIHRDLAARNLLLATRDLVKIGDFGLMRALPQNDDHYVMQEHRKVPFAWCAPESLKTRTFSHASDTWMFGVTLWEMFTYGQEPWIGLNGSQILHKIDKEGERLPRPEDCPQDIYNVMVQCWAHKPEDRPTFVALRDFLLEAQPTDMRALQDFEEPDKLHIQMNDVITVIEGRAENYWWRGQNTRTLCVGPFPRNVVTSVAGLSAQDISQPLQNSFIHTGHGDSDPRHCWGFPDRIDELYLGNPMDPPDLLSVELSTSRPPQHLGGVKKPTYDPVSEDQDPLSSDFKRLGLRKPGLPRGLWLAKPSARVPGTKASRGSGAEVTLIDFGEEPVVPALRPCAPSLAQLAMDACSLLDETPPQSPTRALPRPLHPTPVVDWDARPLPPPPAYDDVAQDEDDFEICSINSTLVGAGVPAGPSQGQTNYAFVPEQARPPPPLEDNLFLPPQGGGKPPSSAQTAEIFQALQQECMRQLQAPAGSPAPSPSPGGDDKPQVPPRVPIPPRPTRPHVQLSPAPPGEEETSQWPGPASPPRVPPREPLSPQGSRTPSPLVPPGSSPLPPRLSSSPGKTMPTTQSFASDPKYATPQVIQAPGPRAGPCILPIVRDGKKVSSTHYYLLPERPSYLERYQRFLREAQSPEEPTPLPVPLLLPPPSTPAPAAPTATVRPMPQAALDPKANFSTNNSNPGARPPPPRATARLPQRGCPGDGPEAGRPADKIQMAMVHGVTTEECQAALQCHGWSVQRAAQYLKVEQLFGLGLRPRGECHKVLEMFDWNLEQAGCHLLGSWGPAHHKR
Chain of JAK2 (O60674 whole entry, species assumed): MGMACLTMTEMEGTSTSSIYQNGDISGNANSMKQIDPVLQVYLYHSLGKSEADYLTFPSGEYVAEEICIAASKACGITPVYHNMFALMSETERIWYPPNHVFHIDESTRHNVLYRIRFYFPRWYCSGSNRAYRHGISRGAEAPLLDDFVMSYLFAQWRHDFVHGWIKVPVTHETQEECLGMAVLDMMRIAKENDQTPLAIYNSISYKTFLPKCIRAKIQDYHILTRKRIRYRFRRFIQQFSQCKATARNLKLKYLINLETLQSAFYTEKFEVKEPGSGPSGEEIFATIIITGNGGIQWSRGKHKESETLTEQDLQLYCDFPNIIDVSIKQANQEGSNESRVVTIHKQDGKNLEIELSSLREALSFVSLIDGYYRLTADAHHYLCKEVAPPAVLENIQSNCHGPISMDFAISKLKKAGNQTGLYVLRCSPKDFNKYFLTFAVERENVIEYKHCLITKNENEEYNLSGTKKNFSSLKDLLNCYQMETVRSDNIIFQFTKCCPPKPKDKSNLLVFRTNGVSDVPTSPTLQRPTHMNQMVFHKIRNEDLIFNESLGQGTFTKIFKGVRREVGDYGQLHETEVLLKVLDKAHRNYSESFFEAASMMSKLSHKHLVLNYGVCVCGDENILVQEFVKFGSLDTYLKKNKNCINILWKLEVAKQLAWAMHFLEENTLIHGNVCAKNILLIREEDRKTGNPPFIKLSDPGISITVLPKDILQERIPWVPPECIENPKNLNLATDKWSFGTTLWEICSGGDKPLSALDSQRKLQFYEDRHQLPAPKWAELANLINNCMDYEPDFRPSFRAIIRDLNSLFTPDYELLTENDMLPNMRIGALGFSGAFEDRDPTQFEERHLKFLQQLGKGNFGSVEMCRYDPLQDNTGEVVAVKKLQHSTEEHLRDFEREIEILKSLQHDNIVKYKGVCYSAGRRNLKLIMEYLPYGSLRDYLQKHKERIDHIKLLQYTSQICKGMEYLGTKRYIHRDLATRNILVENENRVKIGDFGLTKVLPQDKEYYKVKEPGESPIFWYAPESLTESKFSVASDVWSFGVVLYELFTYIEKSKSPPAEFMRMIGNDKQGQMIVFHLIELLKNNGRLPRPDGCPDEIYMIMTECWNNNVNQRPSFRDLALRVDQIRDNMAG

SMILES | inhibition at 10 µM [2] [%] | other results
C[C@]12CCC(=O)C[C@@H]1CC[C@@H]1[C@@H]2CC[C@]2(C)[C@@H](O)CC[C@@H]12 [DHT] | – | H4 Y88-phosphorylation [1]: remained unaffected
CN1CCN(c2ccc(Nc3ncc(Cl)c(NCCc4c(F)cccc4Cl)n3)cc2)CC1 [Example 12, 5-Chloro-N4-(2-chloro-6-fluorophenethyl)-N2-(4-(4-methylpiperazin-1-yl)phenyl)pyrimidine-2,4-diamine] | 93 | –
CN1CCN(c2ccc(Nc3ncc(Cl)c(NCC4CCCN4)n3)cc2)CC1 (stereo not drawn) [Example 2, 5-Chloro-N2-(4-(4-methylpiperazin-1-yl)phenyl)-N4-(pyrrolidin-2-ylmethyl)pyrimidine-2,4-diamine tri-TFA salt] | 18.3 | –
Cc1ccccc1CCNc1nc(Nc2ccc(N3CCN(C)CC3)cc2)ncc1Cl [Example 16, 5-Chloro-N4-(2-methylphenethyl)-N2-(4-(4-methylpiperazin-1-yl)phenyl)pyrimidine-2,4-diamine] | 91 | –
CN1CCN(c2ccc(Nc3ncc(Cl)c(NCc4ccco4)n3)cc2)CC1 [Example 1, 5-Chloro-N4-(furan-2-ylmethyl)-N2-(4-(4-methylpiperazin-1-yl)phenyl)pyrimidine-2,4-diamine] | 96 | –
CN1CCN(c2ccc(Nc3ncc(Cl)c(NCCc4c(Cl)cccc4Cl)n3)cc2)CC1 [Example 10, 5-Chloro-N4-(2,6-dichlorophenethyl)-N2-(4-(4-methylpiperazin-1-yl)phenyl)pyrimidine-2,4-diamine] | 97 | –
COc1ccccc1CCNc1nc(Nc2ccc(N3CCN(C)CC3)cc2)ncc1Cl [Example 14, 5-Chloro-N4-(2-methoxyphenethyl)-N2-(4-(4-methylpiperazin-1-yl)phenyl)pyrimidine-2,4-diamine] | 98 | –
CN1CCN(c2ccc(Nc3ncc(Cl)c(NCCc4ccccc4)n3)cc2)CC1 [Example 7, 5-chloro-N2-(4-(4-methylpiperazin-1-yl)phenyl)-N4-phenethylpyrimidine-2,4-diamine] | 91.9 | –
CN1CCN(c2ccc(Nc3ncc(Cl)c(NCCc4ccccc4Cl)n3)cc2)CC1 [Example 11, 5-Chloro-N4-(2-chlorophenethyl)-N2-(4-(4-methylpiperazin-1-yl)phenyl)pyrimidine-2,4-diamine] | 91 | –
CN1CCN(c2ccc(Nc3ncc(Cl)c(NCCc4ccccc4F)n3)cc2)CC1 [Example 13, 5-Chloro-N4-(2-fluorophenethyl)-N2-(4-(4-methylpiperazin-1-yl)phenyl)pyrimidine-2,4-diamine] | 91 | –
c1ccc(-c2oc3ncnc(NC[C@@H]4CCCO4)c3c2-c2ccccc2)cc1 [Example 1b] | – | Castration and radioresistant prostate xenograft tumor growth [3]: inhibits
CN1CCN(c2ccc(Nc3ncc(Cl)c(NCCc4ccccn4)n3)cc2)CC1 [Example 15, 5-Chloro-N2-(4-(4-methylpiperazin-1-yl)phenyl)-N4-(2-(pyridin-2-yl)ethyl)pyrimidine-2,4-diamine] | 91.9 | –
COc1cc(Nc2c(C#N)cnc3cc(OCCCN4CCN(C)CC4)c(OC)cc23)c(Cl)cc1Cl [bosutinib] | – | cell migration and invasion [4]: inhibit cell migration and invasion; viability [4]: not viability
Cc1nc(Nc2ncc(C(=O)Nc3c(C)cccc3Cl)s2)cc(N2CCN(CCO)CC2)n1 [Dasatinib] | – | Growth of LNCaP cells expressing constitutively activated ACK1, xenograft [5]: significantly reduced
COc1cc(N2CCN(C)CC2)ccc1Nc1ncc(Cl)c(NC[C@H]2CCCO2)n1 [Example 26, (R)-5-Chloro-N^2-[2-methoxy-4-(4-methylpiperazin-1-yl)phenyl]-N^4-[(tetrahydrofuran-2-yl)methyl]pyrimidine-2,4-diamine] | – | pIC50 [6]: 7.41; pIC50 [7]: 7.47; pIC50 [8]: 5.97; pIC50 [9]: 4.78
CN1CCN(c2ccc(Nc3ncc(Cl)c(NCCc4ccc(Cl)cc4Cl)n3)cc2)CC1 [Example 9, 5-Chloro-N4-(2,4-dichlorophenethyl)-N2-(4-(4-methylpiperazin-1-yl)phenyl)pyrimidine-2,4-diamine] | 36.5 | –
CN1CCN(c2ccc(Nc3ncc(Cl)c(NCC4CCCN4C)n3)cc2)CC1 (stereo not drawn) [Example 6, 5-Chloro-N2-(4-(4-methylpiperazin-1-yl)phenyl)-N4-((1-methylpyrrolidin-2-yl)methyl)pyrimidine-2,4-diamine tri TFA salt] | 35.6 | –
Cc1ccc(CNc2nc(Nc3ccc(N4CCN(C)CC4)cc3)ncc2Cl)o1 [Example 3, 5-Chloro-N4-((5-methylfuran-2-yl)methyl)-N2-(4-(4-methylpiperazin-1-yl)phenyl)-pyrimidine-2,4-diamine] | 90.9 | –
CN1CCN(c2ccc(Nc3ncc(Cl)c(NCC4CCCC4)n3)cc2)CC1 [Example 5, 5-Chloro-N4-(cyclopentylmethyl)-N2-(4-(4-methylpiperazin-1-yl)phenyl)pyrimidine-2,4-diamine] | 97 | –
CN1CCN(C(=O)Cc2ccc(Nc3ncc(Cl)c(NC[C@H]4CCCO4)n3)cc2)CC1 [Example 24, (R)-2-(4-((5-chloro-4-(((tetrahydrofuran-2-yl)methyl)amino)pyrimidin-2-yl)amino)phenyl)-1-(4-methylpiperazin-1-yl)ethan-1-one] | 86.8 | –
CN1CCN(c2ccc(Nc3ncc(Cl)c(NCC4CCCCO4)n3)cc2)CC1 (stereo not drawn) [Example 4, 5-Chloro-N2-(4-(4-methylpiperazin-1-yl)phenyl)-N4-((tetrahydro-2H-pyran-2-yl)methyl)pyrimidine-2,4-diamine hydrochloride] | 97 | –
CN1CCN(c2ccc(Nc3ncc(Cl)c(NCCCc4ccccc4)n3)cc2)CC1 [Example 8, 5-Chloro-N2-(4-(4-methylpiperazin-1-yl)phenyl)-N4-(3-phenylpropyl)pyrimidine-2,4-diamine] | 85.8 | –
COc1cc(N2CCN(C)CC2)ccc1Nc1ncc(Cl)c(NCCc2c(F)cccc2Cl)n1 [Example 20, 5-Chloro-N^4-(2-chloro-6-fluorophenethyl)-N^2-[2-methoxy-4-(4-methylpiperazin-1-yl)phenyl]pyrimidine-2,4-diamine] | – | pIC50 [6]: 7.57; pIC50 [7]: 8.15; pIC50 [8]: 5.76; pIC50 [9]: 4.94
COc1ccccc1CCNc1nc(Nc2ccc(N3CCN(C)CC3)cc2OC)ncc1Cl [Example 21, 5-Chloro-N^2-[2-methoxy-4-(4-methylpiperazin-1-yl)phenyl]-N^4-(2-methoxyphenethyl)pyrimidine-2,4-diamine] | – | pIC50 [6]: 7.62; pIC50 [7]: 8.70; pIC50 [8]: 6.07; pIC50 [9]: 5.08
CNC(=O)c1ccc(N2C(=S)N(c3ccc(C#N)c(C(F)(F)F)c3)C(=O)C2(C)C)cc1F [enzalutamide] | – | H4 Y88-phosphorylation [1]: remained unaffected
CN1CCC(NC(=O)c2ccc(Nc3ncc(Cl)c(NC[C@H]4CCCO4)n3)cc2F)CC1 [Example 25, (R)-4-((5-chloro-4-(((tetrahydrofuran-2-yl)methyl)amino)pyrimidin-2-yl)amino)-2-fluoro-N-(1-methylpiperidin-4-yl)benzamide] | 86.9 | –
